Test results published in patent US11638706B2, “Methods for treating Huntington's disease” (PTC Therapeutics, Inc., priority 2015, dated 2023).

system: Huntingtin protein (HTT); experiment: Endogenous Huntingtin Protein Assay (MSD electrochemiluminescence ELISA; MW1 or MAB2166 capture, #5656S detection); type: cell-based, human
Protocol: The Endogenous Huntingtin Protein assay used in Example 2 was developed using the Best Pair antibodies identified in Table 2, providing highly sensitive, high-throughput detection assays for polyglutamine-expanded (mHTT) and total human HTT in multiple cell systems. The platform used for the assay is the ELISA-based Meso Scale Discovery (MSD) electrochemiluminescence assay platform.
Meso Scale Discovery (MSD) 96-well or 384-well plates were coated overnight at 4° C. with MW1 (expanded polyglutamine) or MAB2166 monoclonal antibody (for capture) at a concentration of 1 μg/mL in PBS (30 μL per well). Plates were then washed three times with 300 μL wash buffer (0.05% Tween-20 in PBS) and blocked (100 μL blocking buffer; 5% BSA in PBS) for 4-5 hours at room temperature with rotational shaking and then washed three times with wash buffer.
Samples (25 μL) were transferred to the antibody-coated MSD plate and incubated overnight at 4° C. After removal of the lysates, the plate was washed three times with wash buffer, and 25 μL of #5656S (Cell signaling; rabbit monoclonal) secondary antibody (diluted to 0.25 μg/mL in 0.05% Tween-20 in blocking buffer) was added to each well and incubated with shaking for 1 Hour at room temperature. Following incubation with the secondary antibody, the wells were rinsed with wash buffer after which 25 μL of goat anti-rabbit SULFO TAG secondary detection antibody (required aspect of the MSD system) (diluted to 0.25 μg/mL in 0.05% Tween-20 in blocking buffer) was added to each well and incubated with shaking for 1 hour at room temperature. After rinsing three times with wash buffer, 150 μL of read buffer T with surfactant (MSD) were added to each empty well, and the plate was imaged on a SI 6000 imager (MSD) according to manufacturers' instructions provided for 96- or 384-well plates.

Compared with `CN(c1nnc(-c2ccc(-c3ccn(C)c(=O)c3)cc2O)s1)C1CC(C)(C)NC(C)(C)C1` [Cpd 318], `CC1CC(Oc2ccc(-c3ccc(-n4cccn4)cc3O)nn2)CC(C)N1` (stereo not shown) [Cpd 441, 2-{6-[(2,6-dimethylpiperidin-4-yl)oxy]pyridazin-3-yl}-5-(1H-pyrazol-1-yl)phenol] is higher in IC50: ≤ 100 nM for the first, 3000 to 9000 nM for the second.

`CN(c1ccc(-c2ccc(-c3cn[nH]c3)cc2C(F)F)nn1)C1CC(C)(C)NC(C)(C)C1` [Cpd 465, 6-[2-(difluoromethyl)-4-(1H-pyrazol-4-yl)phenyl]-N-methyl-N-(2,2,6,6-tetramethylpiperidin-4-yl)pyridazin-3-amine] and `CC1(C)CC(Oc2ccc(-c3c(F)cc(-c4cn[nH]c4)cc3F)nn2)CC(C)(C)N1` [Cpd 458, 3-[2,6-difluoro-4-(1H-pyrazol-4-yl)phenyl]-6-[(2,2,6,6-tetramethylpiperidin-4-yl)oxy]pyridazine] fall in the same range of IC50: 3000 to 9000 nM for the first, 3000 to 9000 nM for the second.

First: CN(c1ccc(-c2ccc(-n3cc([N+](=O)[O-])cn3)cc2O)nn1)C1CC(C)(C)NC(C)(C)C1 [Cpd 419, 2-{6-[methyl(2,2,6,6-tetramethylpiperidin-4-yl)amino]pyridazin-3-yl}-5-(4-nitro-1H-pyrazol-1-yl)phenol]
Second: CN(c1ccc(-c2ccc3nccn3c2)nn1)C1CC(C)(C)NC(C)(C)C1 [Cpd 16, 6-(imidazo[1,2-a]pyridin-6-yl)-N-methyl-N-(2,2,6,6-tetramethylpiperidin-4-yl)pyridazin-3-amine]
The IC50 of the first is lower: ≤ 100 nM for the first, 3000 to 9000 nM for the second.

First: CN(c1ccc(-c2ccc(O)cc2F)nn1)C1CC(C)(C)NC(C)(C)C1 [Cpd 440, 3-fluoro-4-{6-[methyl(2,2,6,6-tetramethylpiperidin-4-yl)amino]pyridazin-3-yl}phenol]
Second: Oc1cc(-c2cn[nH]c2)ccc1-c1ccc(OC2C[C@H]3CC[C@@H](C2)N3)nn1 (stereo partly drawn) [Cpd 415, 2-[6-((1R,5S)-8-azabicyclo[3.2.1]oct-3-yloxy)pyridazin-3-yl]-5-(1H-pyrazol-4-yl)phenol]
The IC50 of the first is higher: 3000 to 9000 nM for the first, ≤ 100 nM for the second. The second is the more potent here.

`CN(c1ccc(-c2cc3ccncc3cc2O)nn1)C1CC(C)(C)NC(C)(C)C1` [Cpd 218, 6-(6-(methyl(2,2,6,6-tetramethylpiperidin-4-yl)amino)pyridazin-3-yl)isoquinolin-7-ol] and `COc1cc(-c2cn[nH]c2)ccc1-c1nnc(N(C)C2CC(C)(C)NC(C)(C)C2)s1` [Cpd 307] cannot be ordered by IC50: ≤ 100 nM for the first, 100 to 500 nM for the second.

`COc1cc(-n2cc([N+](=O)[O-])cn2)ccc1-c1ccc(OC2CC(C)(C)NC(C)(C)C2)nn1` [Cpd 454, 3-[2-methoxy-4-(4-nitro-1H-pyrazol-1-yl)phenyl]-6-[(2,2,6,6-tetramethylpiperidin-4-yl)oxy]pyridazine] and `CN(c1nnc(Oc2ccc(-c3cn[nH]c3)cc2)s1)C1CC(C)(C)NC(C)(C)C1` [Cpd 463, N,2,2,6,6-pentamethyl-N-{5-[4-(1H-pyrazol-4-yl)phenoxy]-1,3,4-thiadiazol-2-yl}piperidin-4-amine] fall in the same range of IC50: 3000 to 9000 nM for the first, 3000 to 9000 nM for the second.

`Oc1cc(-c2cn[nH]c2)ccc1-c1ccc(NC2C[C@H]3CC[C@@H](C2)N3)nn1` (stereo partly drawn) [Cpd 412, 2-[6-((1R,5S)-8-azabicyclo[3.2.1]oct-3-ylamino)pyridazin-3-yl]-5-(1H-pyrazol-4-yl)phenol] and `Oc1cc(-c2cn[nH]c2)ccc1-c1ccc(C2=CCNCC2)nn1` [Cpd 424, 5-(1H-pyrazol-4-yl)-2-[6-(1,2,3,6-tetrahydropyridin-4-yl)pyridazin-3-yl]phenol] cannot be ordered by IC50: ≤ 100 nM for the first, 100 to 500 nM for the second.

`Cn1cc(-c2ccc(-c3ccc(OC4CC(C)(C)NC(C)(C)C4)nn3)s2)cn1` [Cpd 449, 3-[5-(1-methyl-1H-pyrazol-4-yl)thiophen-2-yl]-6-[(2,2,6,6-tetramethylpiperidin-4-yl)oxy]pyridazine] and “5-(3,5-dimethyl-1H-pyrazol-4-yl)-2-{6-[(2,2,6,6-tetramethylpiperidin-4-yl)oxy]pyridazin-3-yl}phenol [Cpd 451]” fall in the same range of IC50: 3000 to 9000 nM for the first, 3000 to 9000 nM for the second.

Compared with `Oc1cc(-c2cn[nH]c2)ccc1-c1ccc(NC2CCNCC2)nn1` [Cpd 427, 2-[6-(piperidin-4-ylamino)pyridazin-3-yl]-5-(1H-pyrazol-4-yl)phenol], `CN(c1ccc(-c2ccc(-c3cn[nH]c3)nc2O)nn1)C1CC(C)(C)NC(C)(C)C1` [Cpd 460, 3-{6-[methyl(2,2,6,6-tetramethylpiperidin-4-yl)amino]pyridazin-3-yl}-6-(1H-pyrazol-4-yl)pyridin-2-ol] is higher in IC50: 100 to 500 nM for the first, 3000 to 9000 nM for the second. The first is the more potent here.

First: CN(c1ccc(-c2ccc(-c3cn[nH]c3)cc2O)nn1)C1C[C@H]2CC[C@@H](C1)N2 (stereo partly drawn) [Cpd 411, 2-{6-[(1R,5S)-8-azabicyclo[3.2.1]oct-3-yl(methyl)amino]pyridazin-3-yl}-5-(1H-pyrazol-4-yl)phenol]
Second: CC1(C)CC(Oc2ccc(-c3ccc(-c4cn[nH]c4)cc3)nn2)CC(C)(C)N1 [Cpd 435, 3-[4-(1H-pyrazol-4-yl)phenyl]-6-[(2,2,6,6-tetramethylpiperidin-4-yl)oxy]pyridazine]
The IC50 of the first is lower: ≤ 100 nM for the first, 500 to 1000 nM for the second.

First: Oc1cc(-c2cn[nH]c2)ccc1-c1ccc(N2CC3(CCNCC3)C2)nn1 [Cpd 439, 2-[6-(2,7-diazaspiro[3.5]non-2-yl)pyridazin-3-yl]-5-(1H-pyrazol-4-yl)phenol]
Second: CN(c1ccc(-c2ccc(-c3cn[nH]c3)cc2O)nn1)C1CCNCC1 [Cpd 426, 2-{6-[methyl(piperidin-4-yl)amino]pyridazin-3-yl}-5-(1H-pyrazol-4-yl)phenol]
The IC50 of the first is higher: 1000 to 3000 nM for the first, 100 to 500 nM for the second. The second is the more potent here.

First: Cc1[nH]ncc1-c1ccc(-c2ccc(N(C)C3CC(C)(C)NC(C)(C)C3)nn2)c(O)c1 [Cpd 416, 5-(5-methyl-1H-pyrazol-4-yl)-2-{6-[methyl(2,2,6,6-tetramethylpiperidin-4-yl)amino]pyridazin-3-yl}phenol]
Second: CC1(C)CC(Oc2ccc(-c3ccc(O)cc3O)nn2)CC(C)(C)N1 [Cpd 455, 4-{6-[(2,2,6,6-tetramethylpiperidin-4-yl)oxy]pyridazin-3-yl}benzene-1,3-diol]
The IC50 of the first is lower: ≤ 100 nM for the first, 3000 to 9000 nM for the second.

`CC1(C)CC(Oc2ccc(-c3ccc(-n4cc([N+](=O)[O-])cn4)cc3O)nn2)CC(C)(C)N1` [Cpd 423, 5-(4-nitro-1H-pyrazol-1-yl)-2-{6-[(2,2,6,6-tetramethylpiperidin-4-yl)oxy]pyridazin-3-yl}phenol] and `Cc1cnc(-c2ccc(-c3ccc(N(C)C4CC(C)(C)NC(C)(C)C4)nn3)c(O)c2)o1` [Cpd 44, 5-(5-methyl-oxazol-2-yl)-2-(6-(methyl-(2,2,6,6-tetramethylpiperidin-4-yl)-amino)-pyridazin-3-yl)phenol] cannot be ordered by IC50: ≤ 100 nM for the first, ≤ 100 nM for the second.

First: CC1(C)CC(Oc2ccc(-c3ccc(-c4cn[nH]c4)cc3F)nn2)CC(C)(C)N1 [Cpd 437, 3-[2-fluoro-4-(1H-pyrazol-4-yl)phenyl]-6-[(2,2,6,6-tetramethylpiperidin-4-yl)oxy]pyridazine]
Second: CN(c1ccc(-c2ccc(-n3ccnc3)cc2O)nn1)C1CC(C)(C)NC(C)(C)C1 [Cpd 46, 5-(1H-imidazol-1-yl)-2-(6-(methyl(2,2,6,6-tetramethylpiperidin-4-yl)amino)pyridazin-3-yl)phenol]
The IC50 of the first is higher: 1000 to 3000 nM for the first, ≤ 100 nM for the second.

First: CN(c1ccc(-c2ccc(-n3cc(N)cn3)cc2O)nn1)C1CC(C)(C)NC(C)(C)C1 [Cpd 47, 5-(4-amino-1H-pyrazole-1-yl)-2-(6-(methyl(2,2,6,6-tetramethylpiperidin-4-yl)amino)pyridazin-3-yl)phenol]
Second: Oc1cc(-c2cn[nH]c2)ccc1-c1ccc(N2CC3(CCNC3)C2)nn1 [Cpd 459, 2-[6-(2,6-diazaspiro[3.4]oct-2-yl)pyridazin-3-yl]-5-(1H-pyrazol-4-yl)phenol]
The IC50 of the first is lower: 100 to 500 nM for the first, 3000 to 9000 nM for the second.

Compared with “3-[2-methoxy-4-(1H-pyrazol-1-yl)phenyl]-6-[(2,2,6,6-tetramethylpiperidin-4-yl)oxy]pyridazine [Cpd 447]”, `CN(c1nnc(-c2ccc(-c3cnn(C)c3)cc2O)s1)C1CC(C)(C)NC(C)(C)C1` [Cpd 315] is lower in IC50: 3000 to 9000 nM for the first, ≤ 100 nM for the second. The second is the more potent here.

Compared with `CN(c1nnc(-c2c(F)cc(-c3cn[nH]c3)cc2F)s1)C1CC(C)(C)NC(C)(C)C1` [Cpd 352], `Cc1nn2ccccc2c1-c1ccc(N(C)C2CC(C)(C)NC(C)(C)C2)nn1` [Cpd 445, N-methyl-6-(2-methylpyrazolo[1,5-a]pyridin-3-yl)-N-(2,2,6,6-tetramethylpiperidin-4-yl)pyridazin-3-amine] is higher in IC50: 100 to 500 nM for the first, 3000 to 9000 nM for the second.

`CN(c1ccc(-c2cc(F)c(-c3cn[nH]c3)cc2F)nn1)C1CC(C)(C)NC(C)(C)C1` [Cpd 428, 6-[2,5-difluoro-4-(1H-pyrazol-4-yl)phenyl]-N-methyl-N-(2,2,6,6-tetramethylpiperidin-4-yl)pyridazin-3-amine] and `CN(c1ccc(-c2ccc(-c3cnn(C)c3)cc2O)nn1)C1CC(C)(C)NC(C)(C)C1` [Cpd 51, 2-(6-(methyl(2,2,6,6-tetramethylpiperidin-4-yl)amino)pyridazin-3-yl)-5-(1-methyl-1H-pyrazol-4-yl)phenol] cannot be ordered by IC50: 100 to 500 nM for the first, ≤ 100 nM for the second.

Compound `Oc1cc(-c2cn[nH]c2)ccc1-c1ccc(NC2C[C@H]3CC[C@@H](C2)N3)nn1` (stereo partly drawn) [Cpd 433, 2-{6-[(1R,5S)-8-azabicyclo[3.2.1]oct-3-ylamino]pyridazin-3-yl}-5-(1H-pyrazol-4-yl)phenol] has an IC50 of 100 to 500 nM.
